The subject of one data set is N. europaea Km^r hao-lux. Kind of data set: Bioluminescence response of N. europaea hao-lux fusion to NH4+. It counts as cell-based, Nitrosomonas europaea. As to the method: The NH4^+ detection limits were determined to be 20 μM at 30 min of exposure and 10 μM at 60 min or 90 min of exposure (threefold increase over background bioluminescence).
The nature of data set [1]: Model parameters for naphthalene (diffusion, equilibrium constant). It counts as physicochemical. From the text: Biot numbers were on the order of 100. Effectiveness factor calculations using the best-fit first-order reaction rate constant indicate that the beads were limited by the reaction rate and not by internal mass transfer resistance. The good fit obtained using the analytical solution, wherein external and internal mass transfer was assumed negligible, also support the conclusion that mass transfer effects were minimal. The model predicts that the salicylate distribution reaches a steady state within an alginate bead (99% of final) in about 7 minutes. Even assuming that the diffusion coefficient was reduced by an order of magnitude in the alginate matrix, a steady state was reached within 15 min. […] Cell volume estimated at less than 1% probably had little effect on diffusion. The model also predicted that liquid mass transfer resistance would have little effect on reaching steady state. […] A positive 50% error in the measured adsorption coefficient would result in doubling the time required to reach steady state. […] Model parameters have been measured (liquid mass transfer coefficient, pellet void volume, and adsorption coefficients), reported, and estimated. Respective coefficients for naphthalene were […], 9.0×10^−8 cm^2 s^−1 and 8.4 cm^2 s mol^−1 for liquid diffusion, solid diffusion, and Langmuir equilibrium constants. Companion free cell studies are needed to further aid evaluation of free and immobilized kinetics and response.

For another data set, the system named is P. fluorescens HK44. Format: cell-based, Pseudomonas fluorescens. From the text:
A previously developed PBR system with on-line instrumentation (Webb, 1992; Webb et al., 1991) was used to measure bacterial degradative and bioluminescent activity under conditions mimicking those of the subsurface. The reactor design is detailed in FIG. 21. The PBR was temperature controlled and fitted with metal frits welded to the inlet and outlet to retain and distribute feed to immobilized cultures. An additional inter-cavity insert allowed the installation of filters (e.g., […] inorganic and polymeric) between the packed bed and outlet frit that filtered the effluent for automatic injection into the on-line high-performance liquid chromatography (HPLC) and that produced a uniform resistance to flow that improved the overall distribution to the reactor (Webb, 1992). […] HPLC pumps supplied media to each reactor from pressurized feed reservoirs. All nutrients, including oxygen, entered the reactor dissolved in the liquid phase. Naphthalene and salicylate were detected with an on-line HPLC using a Vydac TP20154 column (Sep/A/Ra/Tions Group, Hesperia, Calif.) with a FL-4 dual-monochromator fluorescent detector (Perkin-Elmer, Norwalk, Conn.). Respective excitation and emission wavelengths for salicylate detection were 290 and 360 nm. The reactor was fitted with an on-line light detector for monitoring bioluminescent activity (Dunbar, 1992) consisting of a glued fiber bundle (Ensign Bickford Optics, Simsbury, Conn.) placed approximately 2.5 cm from the entrance of the reactor. An Oriel Inc. (Stratford, Conn.) 7070 photomultiplier detection system using a Model 77348 photomultiplier tube (radiant sensitivity of […] near 500 nm) were employed.
Mineral salts media (pH 7.2) consisting of MgSO4 7H2O ([…]), NH4NO3 ([…]), trizma™ base ([…]), MgO (1.0×10^−3 g/l), CaCl2 (2.9×10^−4 g/l), FeCl3.6H2O (5.4×10^−4 g/l), ZnSO4.7H2O (1.4×10^−4 g/l), CuSO4 (2.5×10^−5 g/l), […] (6.2×10^−6 g/l), and Na2MoO4.H2O (4.9×10^−5 g/l) were supplied to the reactor with an appropriate carbon source for degradation and bioluminescence studies. Kinetic bacterial studies were phosphate limited and maintained aerobic by con-trolled pressurization of feeds and the reactor.
The HK44 was prepared for immobilization by adding freshly thawed inoculum (frozen at −70° C. until use) to 100 mL of YEPG media which contained glucose (1.0 g/l), polypeptone (2.0 g/l), yeast extract (0.2 g/l), NH4NO3 (0.2 g/l), and tetracycline (14 mg/l). The culture was shaken for 15 hours at 25° C. and then centrifuged at 8000 rpm for 10 minutes. The pellet was then washed with 0.9% NaCl solution three times before immobilization. The concentration of HK44 was enumerated by measuring optical density at 546 nm. The HK44 was immobilized by suspending bacteria in 0.9% NaCl solution and mixing with a low-viscosity alginate (28 g/L) and NaCl (9 g/L) solution in a ratio of 1:2 by volume. Beads were formed by controlled dropwise addition to 0.1 M CaCl2 solution by a syringe needle installed in an air jet controlled by a precision regulator (Porter Instrument Co., Hatfield, Pa.) and a piece of 0.003-in. (i.d.) tubing. Beads diameters were measured using gentle wet sieving. Alginate beads were dissolved in 50 mM sodium hexametaphosphate. […]

Data set [2] in a line: Adsorption isotherms on calcium alginate. It counts as physicochemical. As to the method:
Tracer concentrations were measured using a Waters ion-chromatography system with a series 510 HPLC pump, IC-PAK anion exchange column, and 431 conductance detector (Waters, Cam-bridge, MA) or monitored continuously using fluorescence.

For another data set, the system named is HK44 cells. The note with it: liquid assays; cited from earlier work.
The subject of another data set is S. cerevisiae HER. Kind of data set: Sol-gel encapsulated yeast β-galactosidase bioreporter for estrogenic activity. The note with it: over a seven day period; comparable to non-encapsulated positive control. It counts as cell-based, Saccharomyces cerevisiae. On the procedure: Sol-gel encapsulation studies substituting another yeast strain, S. cerevisiae HER, a β-galactosidase bioreporter for estrogenic activity were conducted. Strain HER was successfully incorporated into the sol-gel matrix while retaining responsiveness to the estrogen inducer β-estradiol.

As to `N.N.O=S(=O)(O)O` [NH4^+, (NH4)2SO4], the “NH4^+ detection limit (threefold increase over background bioluminescence)” value was found to be 20 µM in the data set with N. europaea Km^r hao-lux (30 min of exposure) and 10 µM in the data set with N. europaea Km^r hao-lux (60 min or 90 min of exposure).
Take `c1ccc2ccccc2c1` [naphthalene]: in data set [1], the Langmuir equilibrium constant came out at 8.4 cm^2 s mol^−1, the liquid diffusion coefficient was 9.0×10^6 cm^2 s^−1 and the solid diffusion coefficient is 9.0×10^−8 cm^2 s^−1. Further, the “Bioluminescence ± σ” value in the data set with P. fluorescens HK44 (experiment 5b, biomass […] 10^9 cells/mL, sodium salicylate 2.5 mg/L plus naphthalene 8.0, τ 15 min) is listed as 4.79 ± 3.18 × 10^−1 nA. The “steady-state light response to naphthalene relative to response to salicylate” value in the data set on P. fluorescens HK44 (identical conditions, alginate-immobilized HK44) was “approximately two orders of magnitudes greater”. Also, the “adsorption on calcium alginate (in words)” value in data set [2] was “adsorbed linearly”. In data set [2] (linear isotherm), the “adsorption isotherm on calcium alginate, dimensionless ratio” value was 8.4. Further, in the data set on HK44 cells, the “linear luminescence response, lower concentration” value was 0.72 µg/L and the “linear luminescence response, upper concentration” value was 3.25 mg/L.
Turning to `C[C@]12CC[C@@H]3c4ccc(O)cc4CC[C@H]3[C@@H]1CC[C@@H]2O` [β-estradiol], in the data set on S. cerevisiae HER, the “estrogenic response of sol-gel encapsulated yeast cells (in words)” value is listed as “an estrogenic response was initiated”.

Values taken from patent US6905834B1, “Bioluminescent bioreporter integrated circuit detection methods” (UT-Battelle, LLC, priority 1997, dated 2005).
